Measurements from patent US20150368715A1, “DIAGNOSTIC AND TREATMENT OF CHRONIC HEART FAILURE” (Institut National de la Sante et de la Recherche Medicale …, priority 2010, published 2015).

Legend:
Assay type in all cases: cell-based, rat
AMPK = test: Western blot analysis of AMPK phosphorylation; conditions: ApoO+ cardiac myoblasts, with or without palmitate; FIG. 6G
caspase 3 = test: Caspase 3 activity monitoring in cardiac myoblasts; conditions: ApoO+ cells incubated with palmitate, with or without added agent, FIG. 5A, 5L, 6E, 6F
Description: Palmitate preparation and caspase 3 activity measurement were performed as previously described (Hickson-Bick, Buja et al. 2000; Hirota, Otabe et al. 2006).

H9c2 cardiac myoblasts [1] = test: Oxygen flow measurement (cell respiration); conditions: ApoO+ H9c2 cardiac myoblasts; CCCP 4 to 16 μM cumulative doses; FIG. 8A
H9c2 cardiac myoblasts [2] = test: Transmission electron microscopy of palmitate treated cells; conditions: H9c2 (control) cardiac myoblasts treated with palmitate; not shown
[3] = tested on: long fatty acyl CoA synthetase; test: Palmitoyl-coA synthase activity in H9c2 cardiac myoblasts; conditions: control and ApoO+ H9c2 cardiac myoblasts; FIG. 7H

SMILES: NC(=O)c1ncn([C@@H]2O[C@H](CO)[C@@H](O)[C@H]2O)c1N [AICAR, 5-Aminoimidazole-4-carboxyamide ribonucleoside]
- AMPK phosphorylation (AMPK): increased AMPK phosphorylation
- caspase 3 activity (caspase 3): significantly reduced

SMILES: N#CC(C#N)=NNc1cccc(Cl)c1 [CCCP, Carbonyl cyanide m-chlorophenyl hydrazone]
- oxygen consumption (H9c2 cardiac myoblasts [1]): further increased

SMILES: CCCC[C@@H](C)[C@@H](OC(=O)C[C@@H](CC(=O)O)C(=O)O)[C@H](C[C@@H](C)C[C@H](O)CCCC[C@@H](O)C[C@H](O)[C@H](C)N)OC(=O)C[C@@H](CC(=O)O)C(=O)O [Fumonisin B1]
- caspase 3 activity (caspase 3): lowered caspase 3 activity
- caspase 3 activity (caspase 3; listed as fumonisine B): partially attenuated

SMILES: O=c1cc(N2CCOCC2)oc2c(-c3ccccc3)cccc12 [LY294002]
- caspase 3 activity (caspase 3): no significant effect

SMILES: CCCCCCCCCCCCCCCC(=O)O [palmitate]
- mitochondrial alteration by transmission electron microscopy (H9c2 cardiac myoblasts [2]): no significant effect

SMILES: CCC/C=C/C/C=C/C=C/C=N/NN=O [triacsin C]
- palmitoyl-coA activity [3]: inhibited
